Activity calls are given as the source filed them. No cut-off for these calls is given here.
Key:
Type in all cases: functional, organism-based
Leishmania donovani = assay: Antileishmanial activity against promastigotes of Leishmania donovani expressing firefly luciferase after 72 hr by luciferase assay
Plasmodium falciparum [1] = assay: Antimalarial activity against chloroquine-sensitive Plasmodium falciparum D6 after 72 hr by […] assay; conditions: D6, 72 h
Plasmodium falciparum [2] = assay: Antimalarial activity against chloroquine-resistant Plasmodium falciparum W2 after 72 hr by […] assay; conditions: W2, 72 h
Candida albicans = assay: Antimicrobial activity against Candida albicans
[3] = system: Mycobacterium intracellulare; assay: Antimicrobial activity against Mycobacterium intracellulare
Aspergillus fumigatus = assay: Antimicrobial activity against Aspergillus fumigatus
Cryptococcus neoformans = assay: Antimicrobial activity against Cryptococcus neoformans
Escherichia coli = assay: Antimicrobial activity against Escherichia coli
Staphylococcus aureus = assay: Antimicrobial activity against methicillin-resistant Staphylococcus aureus

| Structure (SMILES) | IC90 (Leishmania donovani) [µM] | IC50 (Plasmodium falciparum [1]) [µM] | IC50 (Plasmodium falciparum [2]) [µM] | Activity (Candida albicans) | Activity [3] | Activity (Aspergillus fumigatus) | Activity (Cryptococcus neoformans) | IC50 (Leishmania donovani) [µM] | Activity (Escherichia coli) | Activity (Staphylococcus aureus) |
| --- | --- | --- | --- | --- | --- | --- | --- | --- | --- | --- |
| C[C@@H]1[C@H](O)[C@@H](C)/C=C/C=C/C=C/C=C/C=C/C=C/C=C/[C@H](O[C@@H]2O[C@H](C)[C@@H](O)[C@H](N)[C@@H]2O)C[C@@H]2O[C@](O)(C[C@@H](O)C[C@@H](O)[C@H](O)CC[C@@H](O)C[C@@H](O)CC(=O)O[C@H]1C)C[C@H](O)[C@H]2C(=O)O [AMPHOTERICIN B] | 2.5 | – | – | – | – | – | – | – | – | – |
| CCOC(=O)Cc1ccc(Cc2cn(Cc3ccccc3)cn2)cc1 | – | 8 | 6.3 | – | – | – | – | – | – | – |
| CCOC(=O)C(=O)Nc1cc(Cc2ccc(CC)cc2)cc(NC(=O)Cc2ccc(Cc3cn(Cc4ccccc4)cn3)cc2)c1 | – | 6.5 | 5.5 | inactive | inactive | inactive | inactive | 41 | inactive | inactive |
| CCc1ccc(Cc2cc(N)cc(N)c2)cc1 | 134 | – | – | – | – | – | – | 69 | – | – |

— ChEMBL document CHEMBL3046546, “Synthesis and biological evaluation of a novel anti-malarial lead” (Med Chem Res, 2011)
